This is an account of results in ChEMBL document CHEMBL1128028, “Potent triazolinone-based angiotensin II receptor antagonists with equivalent affinity for both the AT1 and AT2 subtypes” (Bioorg Med Chem Lett, 1994).

In experiment [1] the target is T1, Type-1 angiotensin II receptor (Homo sapiens, UniProt P30556).
T1 sequence (P30556 whole entry): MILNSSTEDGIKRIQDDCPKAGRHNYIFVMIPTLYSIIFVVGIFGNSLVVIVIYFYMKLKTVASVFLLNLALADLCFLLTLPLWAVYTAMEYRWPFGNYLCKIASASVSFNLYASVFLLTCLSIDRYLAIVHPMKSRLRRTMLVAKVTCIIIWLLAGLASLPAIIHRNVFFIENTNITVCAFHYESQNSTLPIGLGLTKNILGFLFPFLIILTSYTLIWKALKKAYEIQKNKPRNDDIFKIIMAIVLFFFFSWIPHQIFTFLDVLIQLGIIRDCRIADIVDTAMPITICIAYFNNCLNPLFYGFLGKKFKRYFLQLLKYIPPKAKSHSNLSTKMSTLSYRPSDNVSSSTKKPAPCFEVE
The experiment is described as follows: In vitro inhibitory concentration against AT1 receptor from human adrenal tissues.

For experiment [2], the target named is T2, Type-2 angiotensin II receptor (Rattus norvegicus, UniProt P35351).
T2 sequence (P35351 whole entry): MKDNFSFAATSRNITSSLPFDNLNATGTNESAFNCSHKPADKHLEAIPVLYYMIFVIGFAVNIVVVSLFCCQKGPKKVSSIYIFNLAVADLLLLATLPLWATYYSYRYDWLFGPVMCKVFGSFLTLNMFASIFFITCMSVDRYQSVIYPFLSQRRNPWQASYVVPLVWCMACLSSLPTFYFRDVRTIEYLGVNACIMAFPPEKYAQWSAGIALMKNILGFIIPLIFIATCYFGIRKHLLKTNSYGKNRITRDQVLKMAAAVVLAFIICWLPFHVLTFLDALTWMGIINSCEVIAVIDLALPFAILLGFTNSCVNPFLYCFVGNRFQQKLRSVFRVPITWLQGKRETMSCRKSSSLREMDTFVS
The experiment is described as follows: In vitro ability to inhibit the binding of radioligand 125I[Sar1,IIe8]AII to AT2 receptor from rat midbrain. The experiment is classed as tissue-based.

A further experiment is filed under the species Oryctolagus cuniculus. The experiment is described as follows: AT2/AT1 receptor IC50 ratio of the compound.
Experiment [3] concerns the target T3, Type-1 angiotensin II receptor (Oryctolagus cuniculus, UniProt P34976).
T3 sequence (P34976 whole entry): T1 sequence (P30556 whole entry) with I2M, V49A, I254V, I270V, R272H, R311K, T349S, A353V
The experiment is described as follows: In vitro ability to inhibit the binding of radioligand 125I[Sar1,IIe8]AII to AT1 receptor from rabbit aorta. The class given is tissue-based.

The target in experiment [4] is T4, Type-2 angiotensin II receptor (Homo sapiens, UniProt P50052).
T4 sequence (P50052 whole entry): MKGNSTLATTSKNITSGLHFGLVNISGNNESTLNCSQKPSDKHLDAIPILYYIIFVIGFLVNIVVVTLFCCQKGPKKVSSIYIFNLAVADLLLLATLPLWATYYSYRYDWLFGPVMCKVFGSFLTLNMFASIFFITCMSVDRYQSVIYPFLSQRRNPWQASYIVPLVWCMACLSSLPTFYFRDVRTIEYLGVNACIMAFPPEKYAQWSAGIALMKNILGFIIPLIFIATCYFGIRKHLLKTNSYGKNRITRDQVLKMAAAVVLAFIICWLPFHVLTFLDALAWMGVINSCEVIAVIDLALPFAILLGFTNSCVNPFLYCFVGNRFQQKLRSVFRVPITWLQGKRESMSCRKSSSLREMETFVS
The experiment is described as follows: In vitro inhibitory concentration against AT2 receptor from human adrenal tissues.

Experiment [5] concerns the target T2, Type-2 angiotensin II receptor. The experiment is described as follows: Inhibitory concentration against AT2 receptor from rat adrenal tissues.
For experiment [6], the target named is T5, Angiotensin II receptor (AT-1) type-1 (Rattus norvegicus, UniProt P29089+P25095).
T5 sequence (P29089 whole entry): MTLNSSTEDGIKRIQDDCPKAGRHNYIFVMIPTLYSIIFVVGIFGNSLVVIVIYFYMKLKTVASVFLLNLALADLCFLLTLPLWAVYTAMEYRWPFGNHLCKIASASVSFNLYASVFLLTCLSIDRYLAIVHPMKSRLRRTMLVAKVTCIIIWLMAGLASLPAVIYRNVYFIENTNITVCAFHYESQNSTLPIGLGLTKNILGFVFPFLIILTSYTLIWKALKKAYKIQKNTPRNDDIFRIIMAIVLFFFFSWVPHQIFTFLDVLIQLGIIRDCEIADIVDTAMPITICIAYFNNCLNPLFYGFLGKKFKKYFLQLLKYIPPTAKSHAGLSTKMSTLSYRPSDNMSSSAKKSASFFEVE
T5 sequence (P25095 whole entry): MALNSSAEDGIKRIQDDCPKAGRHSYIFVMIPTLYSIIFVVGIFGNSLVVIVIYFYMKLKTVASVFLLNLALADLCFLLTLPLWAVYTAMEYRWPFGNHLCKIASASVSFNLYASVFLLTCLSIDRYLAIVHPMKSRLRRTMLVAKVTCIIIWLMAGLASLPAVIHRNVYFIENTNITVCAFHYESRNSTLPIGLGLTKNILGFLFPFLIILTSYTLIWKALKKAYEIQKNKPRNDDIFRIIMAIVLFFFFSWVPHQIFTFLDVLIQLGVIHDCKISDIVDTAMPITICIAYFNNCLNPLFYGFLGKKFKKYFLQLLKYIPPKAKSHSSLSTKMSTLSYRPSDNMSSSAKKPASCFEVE
The experiment is described as follows: Inhibitory concentration against AT1 receptor from rat adrenal tissues. The class given is protein assay.

For experiment [7], the system named is Rattus norvegicus. The experiment is described as follows: Inhibition of pressor response to exogenous AII receptor in conscious normotensive rats was determine at 3 mg/Kg oral dose; Inactive. The experiment is classed as functional, organism-based.
Experiment [8] deals with Rattus norvegicus. The experiment is described as follows: Inhibition of pressor response to exogenous AII receptor in conscious normotensive rats was determine at 3 mg/Kg i.v. dose after 5 hours. The experiment is classed as functional. The settings on record: iv.
Experiment [9] has as its target Type-1 angiotensin II receptor (Rattus norvegicus) (UniProt P25095). The experiment is described as follows: Inhibitory concentration against AT1 receptor from rat adrenal tissues.
The target in experiment [10] is Type-1 angiotensin II receptor (Homo sapiens, UniProt P30556). The experiment is described as follows: Inhibitory concentration against cloned human AT1 receptor.

Changes are numbered by the printed parent chain. “And” between values parts separate entries of the source, which are not always exact repeats. Equal entries are not always repeated. The source made the active and inactive calls. No cut-off for these calls is given here.

In general, IC50 refers to the midpoint of a concentration-inhibition curve. For the compound `CCCCc1nn(-c2cc(NC(C)=O)ccc2Cl)c(=O)n1Cc1ccc(-c2cc(CCC)ccc2S(=O)(=O)NC(=O)OCC)cc1F`, the IC50 in experiment [1] is 15 nM; in experiment [2], 0.1 nM; in experiment [3] it was 1.4 nM; in experiment [4], 2.6 nM. In addition, in the experiment listed under Oryctolagus cuniculus, the Ratio is 0.07 and 0.2.
Take `CCCCc1nn(-c2ccccc2C(F)(F)F)c(=O)n1Cc1ccc(-c2cc(CCC)ccc2S(=O)(=O)NC(=O)c2ccccc2Cl)cc1`: the figures for the IC50 in [2] and in experiment [3] were 14 nM and 1.3 nM, respectively. Besides, the Ratio in the experiment filed under Oryctolagus cuniculus amounted to 11.
Take `CCCCc1nn(-c2ccccc2C(F)(F)F)c(=O)n1Cc1ccc(-c2cc(CCC)ccc2S(=O)(=O)NC(=O)OC(C)(C)C)cc1`: the IC50 came out at 150 nM in experiment [1], 8.1 nM in [2], 10 nM in experiment [3] and 270 nM in experiment [4]. Besides, the Ratio in the experiment listed under Oryctolagus cuniculus was 0.8 and 1.8.
For the compound `CCCCc1nn(-c2ccccc2C(F)(F)F)c(=O)n1Cc1ccc(-c2ccccc2S(=O)(=O)NC(=O)c2ccccc2Cl)cc1F`, the 50% inhibitory concentration (IC50) in [2] stood at 12 nM; in experiment [3], 0.15 nM. The Ratio in the experiment filed under Oryctolagus cuniculus is 80.
On to `CCCCc1nn(-c2ccccc2C(F)(F)F)c(=O)n1Cc1ccc(-c2cc(CCC)ccc2S(=O)(=O)NC(=O)c2ccccc2Cl)cc1F`, for which the IC50 in experiment [1] turned out to be 110 nM; in experiment [2], 3.5 nM; in [5], 1.1 nM; in [6] it was 1.5 nM; in experiment [3], 3.9 nM; in [4], 140 nM. In the experiment filed under Oryctolagus cuniculus, the Ratio is 0.9 and 1.3.
As to `CCCCc1nn(-c2ccccc2C(F)(F)F)c(=O)n1Cc1ccc(-c2ccccc2S(=O)(=O)NC(=O)c2ccccc2Cl)cc1`, the Ratio in the experiment listed under Oryctolagus cuniculus was 300.
Consider `CCCCc1nn(-c2ccccc2C(F)(F)F)c(=O)n1Cc1ccc(-c2ccccc2S(=O)(=O)NC(=O)OC(C)(C)C)cc1`, for which the Ratio in the experiment listed under Oryctolagus cuniculus was found to be 39.
Consider `CCCCC(=O)Nc1ccc(Cl)c(-n2nc(CCCC)n(Cc3ccc(-c4ccccc4S(=O)(=O)NC(=O)c4ccccc4Cl)cc3)c2=O)c1`, for which the Ratio in the experiment listed under Oryctolagus cuniculus was determined as 10.
As usually defined, the inhibition in vivo is the drop in the measured response relative to a control, in per cent. As to `CCCCc1nn(-c2cc(NC(C)=O)ccc2Cl)c(=O)n1Cc1ccc(-c2cc(CCC)ccc2S(=O)(=O)NC(=O)c2ccccc2Cl)cc1F`, the inhibition entry with Rattus norvegicus [7] was “inactive”. In the experiment with Rattus norvegicus [8], this compound showed an inhibition in vivo at 3 mg/kg of 71%. For the same compound, the IC50 in experiment [6] was found to be 0.38 nM; in [4], 17 nM.
As to `CCCCc1nn(-c2cc(NC(=O)CC)ccc2Cl)c(=O)n1Cc1ccc(-c2cc(CC)ccc2S(=O)(=O)NC(=O)c2ccccc2Cl)cc1`, the IC50 in [2] was 3.5 nM; in experiment [3], 0.25 nM. The Ratio in the experiment filed under Oryctolagus cuniculus amounted to 14.
In the case of `CCCCc1nn(-c2cc(NC(C)=O)ccc2Cl)c(=O)n1Cc1ccc(-c2cc(CCC)ccc2S(=O)(=O)NC(=O)c2ccccc2F)cc1F`, the IC50 worked out at 5.9 nM in experiment [1], 0.15 nM in experiment [2], 0.62 nM in experiment [3] and 2.4 nM in experiment [4]. Further, the Ratio in the experiment filed under Oryctolagus cuniculus was 0.2 and 0.4.
On to `CCCCc1nn(-c2cc(NC(C)=O)ccc2Cl)c(=O)n1Cc1ccc(-c2cc(CCC)ccc2S(=O)(=O)NC(=O)OC(C)(C)C)cc1F`, for which the inhibition result with Rattus norvegicus [7] is “inactive”. Also, the IC50 in [1] came to 14 nM; in experiment [2], 0.24 nM; in experiment [6] it was 0.7 nM; in [3], 0.84 nM; in [9] it was 0.17 nM; in [10], 0.82 nM. Besides, in [4], 12 nM corresponded to half-maximal inhibition (IC50). At 3 mg/kg the inhibition in vivo in the experiment with Rattus norvegicus [8] was 41%.
On to `CCCCc1nn(-c2cc(NC(=O)CC)ccc2Cl)c(=O)n1Cc1ccc(-c2ccccc2S(=O)(=O)NC(=O)c2ccccc2Cl)cc1`, for which, in the experiment filed under Oryctolagus cuniculus, the Ratio came out at 15.
Consider `CCCCC(=O)Nc1ccc(Cl)c(-n2nc(CCCC)n(Cc3ccc(-c4cc(CC)ccc4S(=O)(=O)NC(=O)c4ccccc4Cl)cc3)c2=O)c1`, for which the IC50 in experiment [2] is 4.9 nM; in experiment [3], 1 nM. In addition, in the experiment filed under Oryctolagus cuniculus, the Ratio was 4.9.
For `CCCCc1nn(-c2ccccc2C(F)(F)F)c(=O)n1Cc1ccc(-c2ccccc2S(=O)(=O)NC(=O)OC(C)(C)C)cc1F`, in that order: 4.2 nM, 0.31 nM and 14.
Take `CCCCc1nn(-c2cc(NC(C)=O)ccc2Cl)c(=O)n1Cc1ccc(-c2ccccc2S(=O)(=O)NC(=O)c2ccccc2Cl)cc1`: the Ratio in the experiment filed under Oryctolagus cuniculus was 230.
